# Active and inactive are the calls of the source. The rule behind the calls is not given here.
# Tested on: Replicase polyprotein 1ab (Severe acute respiratory syndrome coronavirus 2), P0DTD1 [C145A]
# Test: Binding affinity to recombinant hexa-His tagged SARS-COV2 main protease C145A mutant expressed in HEK293T cells by in-gel fluorescence analysis
# Assay type: cell-based
compound,measurement,value
C#CC[C@H](NC(=O)C(F)(F)F)C(=O)N1C[C@H]2[C@@H]([C@H]1C(=O)N[C@H](C#C)C[C@@H]1CCNC1=O)C2(C)C,Activity,inactive

# — ChEMBL document CHEMBL5365428, “Alkyne as a Latent Warhead to Covalently Target SARS-CoV-2 Main Protease” (J Med Chem, 2023)
